Reference: US20200215029A1, “APPLICATION OF AMD3100 IN PREPARATION OF DRUG FOR TREATING AND/OR PREVENTING CACHEXIA AND PHARMACEUTICAL COMPOSITION THEREOF” (SUN YAT-SEN UNIVERSITY, priority 2017, published 2020)

Key:
[1] = tested on: Nestin+ cells; settings: AMD3100 0.15 mg/kg body weight/day by Alzet slow-release pump, tumor-bearing mice
Protocol: 8-week-old C57 BL/6 male mice having no more than […] of weight were taken and divided into control group, cachexia group (LLC), and AMD3100 group (LLC+AMD3100).
Control group: no treatment.
Cachexia group: 4×10^6 LLC was transplanted subcutaneously into the groin of mice. After 7 days, mice were anesthetized with 100 μL of 10% chloral hydrate, and Alzet slow release pumps (model: 1004) were implanted subcutaneously on the back of mice. The normal saline was contained in the pump.
AMDd3100 group: 4×10^6 LLC was transplanted subcutaneously into the groin of mice. After 7 days, mice were anesthetized with 100 μL of 10% chloral hydrate, and an Alzet slow-release pump (model: 1004) was implanted subcutaneously on its back, and AMD3100 was contained in the pump. The use amount of mice AMD3100 was 0.15 mg/kg weight/day. After 14 days of installation of the slow-release pump, the mice were killed, and the muscle and fat tissue sections were taken for immunofluorescence staining, or RNA reverse transcription for fluorescence quantitative PCR was carried out by extracting RNA reverse transcription to detect the expression of Nestin.

[2] = tested on: muscle and fat-derived Nestin+ cells; assay: Transwell migration of mouse Nestin+ cells promoted by Cxcl12; assay type: cell-based; settings: 1 μmol/ml Cxcl12 under the Transwell chamber (8 μm pore), 24 hours, versus control without Cxcl12
Protocol: The Corning Transwell chamber (8 μm pore size) was placed on a 24-well plate, and muscle and fat-derived Nestin+ cells (see example 1) cultured in vitro were inoculated in the Transwell chamber with 2×10^4 cells/well, and cultured in a 5% CO2 and 37° C. incubator. Each well was added with 500 μl of DMEM/low sugar under the Transwell chamber. The experimental group contained 1 μmol/ml Cxcl12 factors, while Cxcl12 factors were not added in control group. After 24 hours, the chamber was taken out, the cells inside the chamber were wiped out with a cotton swab, and the chamber was washed gently and immobilized and rinsed twice with anhydrous alcohol; the chambers in various groups were marked, and erected on the abandoned well plate, and crystal violet dye solution was added into each well for incubate at room temperature for 15 min; excessive staining solution was washed away. The quantity of migrated cells in each group was measured under the inverted microscope. Five fields (400 times) were randomly selected to calculate the quantity of migrated cells in each group under the microscope with 3 repeated wells in each group. The average value of the results was calculated. It can be seen from FIG. 6 that Cxcl 12 can promote the migration of mouse Nestin+ cells.

Row | Compound | migration of Nestin+ cells from muscles and fats toward tumor [1] | migration of mouse Nestin+ cells (quantity of migrated cells) [2] | migration of mouse Nestin+ cells (quantity of migrated cells) ([2]; listed as Cxcl12)
1 | c1cc(CN2CCCNCCNCCCNCC2)ccc1CN1CCCNCCNCCCNCC1 [AMD3100, 1,1′-[1,4-phenylenebis(methylene)]-di-1,4,8,11-tetraazacyclotetradecane] | successfully inhibit |  | 
2 | Cxcl 12: chemokine Cxcl12 factor added under the Transwell chamber; highly expressed in mouse tumor |  | promote | promoted
